Patent publication US5783586A, “Heteroarylmethoxyphenylthioalkyl carboxylates as inhibitors of leukotriene biosynthesis” (Abbott Laboratories, priority 1996, dated 1998)

Key:
leukotriene biosynthesis = experiment: Ionophore A23187-Induced Rat Pleural Inflammation Model (leukotriene biosynthesis inhibition in vivo); settings: 1 h, male rats, dosed in 0.2% methocel one hour prior to intrapleural A23187, eicosanoids in pleural lavage
Method: Lipoxygenase Inhibition Determination in vivo
Inhibition of leukotriene biosynthesis in vivo was evaluated using the lonophore A32187-Induced Rat Plueral Inflammation Model. Pleural inflammation was induced in male rats following the method of Rao, et al (Rao, T. S., Currie, J. L., Shaffer, A. F., Isakson, P. C., (1993) Evaluation of 5-lipoxygenase Inhibitors, Zileuton, A-78773 and ICI D-2138 in an Ionophore (A-23187) Induced Pleural Inflammation Model in the Rat, Life Sciences, 53: 147 (1993)). Rats were dosed with experimental compounds in 0.2% methocel one hour prior to the intrapleural injection of the calcium ionophore, A23187. The rats where lightly anesthetized with Pentrane (Abbott Laboratories) and injected intrapleurally with 0.5 ml of 2% ethanol in injectable saline (Abbott Laboratories) containing 20 μg of A23187 (Cal BioChem-Novabiochem). Thirty minutes later the animals were euthanised and the pleural cavities lavaged with ice cold saline (Abbott Laboratories). The lavage fluid was then added to ice cold methanol (final methanol concentration 30%) to lyse cells and precipitate protein. Eicosanoids were determined by enzyme immunoassay by standard methods.

[1] = test system: leukotriene biosynthesis (LTB4) in human polymorphornuclear leukocytes (PMNL); experiment: calcium ionophore-induced LTB4 in human PMNL (leukotriene biosynthesis inhibition in vitro); assay type: cell-based; settings: calcium ionophore 8.3 μM, 15 min preincubation, LTB4 measured
Method: Lipoxygenase Inhibition Determination in vitro
Inhibition of leukotriene biosynthesis was evaluated in vitro using an assay involving calcium ionophore-induced LTB4 expressed in human polymorphornuclear leukocytes (PMNL). Human PMNL isolated from heparinized (20 USP units/mL) venous blood (25 mL) obtained from healthy volunteers was layered over an equal volume of Ficoll-Hypaque Mono-Poly Resolving Medium (ICN Flow, Costa Mesa, Calif.) and centrifugated at 400 × g for 40 minutes at 20° C. The PMNL was collected, erythrocytes lysed and washed 2× and suspended at 1.0×10^7 cells/ml in Earle's balanced salt solution with 17 mM Earle's HEPES. Aliquots of the cell suspension were preincubated with test compounds dissolved in DMSO (final concentration <2%) for 15 minutes and stimulated with calcium ionophore (final concentration 8.3 μM) for 10 minutes at 37° C. Incubations were stopped with the addition of two volumes of ice-cold methanol followed by centrifuging the cell suspensions at 4° C. for 10 minutes at 450 × g. The amount of LTB4 in the methanol extract was analyzed by enzyme-linked immunoassay or by HPLC analysis.

`CC(SCC(=O)O)(c1ccc(OCc2ccc3ccccc3n2)cc1)c1ccc(OCc2ccc3ccccc3n2)cc1` [Example 1, 1,1-bis(4-(2-quinolylmethoxy)phenyl)eth-1-ylthioacetic acid] gave an ED50 (leukotriene biosynthesis) of 1.1 mg/kg and an IC50 [1] of 230 nM.
